This is an account of results in patent publication US6872712B1, “Cyclic glycerophosphates and analogs thereof” (Yeda Research and Development Co. Ltd., priority 1999, dated 2005).

Data set [1] relates to intracellular proteins of target cells (CHO and NIH-3T3 cells). Description: Phosphorylation of intracellular proteins of target cells (general statements). Format: cell-based. The procedure: In accordance with the invention, the phosphorylating activity of the CGs may be measured by any of the methods known in the art. Generally, following incubation of the CG with the target cells, the cells are lysed, the protein concentration in each sample is determined and the level of phosphorylation of the proteins is determined using known methods and suitable and available polyclonal or monoclonal antibodies. Typically, phosphorylation occurs on the tyrosine residues of the protein and such phosphorylation is determined using either polyclonal or monoclonal anti phosphotyrosine antibodies (such as those described below in the Examples). However, in some cases, phosphorylation occurs on the threonine or serine components of the proteins in which case polyclonal or monoclonal anti phosphothreonine or anti phosphoserine antibodies may be used.
(§1) The cyclic phosphates 1,3 cGP, 1,3 cPP, 1,2 cGP, 1,2 cPP, P-1,3 cGP and P-1,3 cPP and the controls αGP and βGP were dissolved in HBSS, or methanol to form stocks of 1 mM or 10 mM. […] The protein concentration in each sample, as evaluated by the Bradford assay, was in the range of 1-1.5 mg/ml. […] Bound antibodies were detected by horseradish peroxidase-conjugated anti-rabbit antibodies (Transduction Laboratories, Lexington Ky.) after 2 hours incubation at room temperature, using the conventional ECL detection method. […]

For the next data set, the system named is Raf1/MAPK cascade. In words: Immunoprecipitation kinase assays (Raf-1, MAPK). Format: cell-based, Chinese hamster. The following applies: CHO cells, 2 μM for 2 and 5 minutes (FIG. 6). The procedure:
(§2) (v) Immunoprecipitation kinase assays. Raf-1 Activity was determined by immunoprecipitation with anti-Raf-1 C terminus antibodies (Santa Cruz Biotech, CA) using recombinant MEK1 as a substrate as previously described (Seger, 1994). Mitogen-activated protein kinase (MAPK) activity was determined by immunoprecipitation with anti-ERK2 C terminus antibodies (Santa Cruz Biotech, CA) using MBP as a substrate (Seger, 1994). Jun N-terminal kinase (JNK) activity was determined by purifying the JNK on a GST-Jun (1-97) column followed by phosphorylation (Hibi, 1993).
(§3) The in-gel kinase assay in the presence of MBP was applied as described in Materials and Methods above to detect stimulation of protein kinases by the cyclic phosphates. CHO cells were treated either with medium (0 control), or with 2 μM, α GP or β GP for 2 minutes, 2 μM […] for 2 and 5 minutes and […] 1,3-cPP for 2 minutes after which the cells were lysed and analyzed.
(§4) Their apparent molecular weights were around MW of 35-40, 55 and 62 kD. The 35-40 kD protein kinase which was activated by 1,3-cGP (E) could be assigned to the P42 MAPK (ERK 2). In addition, cells were treated as described above and then subjected to Raf-1, MAPK and IP kinase assays and these are presented in the first and second rows of FIG. 6. In parallel, JNK assay was performed (third row, […]).

Data set [2] deals with protein kinases of CHO cells (P42 MAPK (ERK 2)). In words: In-gel kinase assay in the presence of MBP. Format: cell-based, Chinese hamster. The following applies: 2 μM for 2 and 5 minutes (FIG. 6). As for the experimental part:
Phosphorylated cell proteins were separated by SDS-PAGE using a gel that was copolymerized with MBP (0.5 mg/ml) and treated as described (Karunuguran et al., EMBO J. 15:254-264, 1996). After electrophoresis, the gel was fixed with isopropanol and denatured using 6M Urea. Renaturation was achieved by gradual removal of the excess of urea followed by extensive washings in a renaturing buffer (16 h, 4° C.) and in a buffer containing […] HEPES pH 7.6, and 20 mM MgCl2 (30 min, 30° C.). The gel was then subjected to phosphorylation in a buffer containing 20 mM HEPES pH 7.6, 20 mM MgCl2, 2 mM DTT, 20 μM ATP and […] [y^32P]-ATP (30° C. for 120 min). Finally the gel was extensively washed, dried, and subjected to autoradiography.
as §3

The subject of another data set is cell lysate phosphatases. In words: Inhibition of phosphatase activity of cell lysate (PNPP substrate). Format: biochemical. The following applies: 50 μM, 50 mM PNPP, 90 minutes at 37° C., pH 7.4. The procedure: Inhibition of phosphatase activity of cell lysate by cyclic phosphates was assayed in 1.0 ml of 50 mM Tris-HCl buffer, pH 7.4, containing 50 mM p-nitrophenyl phosphate, PNPP, as a substrate. Reaction was initiated by the addition of crude cell lysate (100 μg/ml final protein concentration) and terminated after 90 minutes at 37° C. by an addition of 50 μl of 1M NaOH. […] Assays were conducted under the same conditions as above in the presence of 50 μM cyclic phosphate. The enzyme activity in the absence of inhibitor was taken as 100% activity.

For data set [3], the system named is Jun N-terminal kinase (JNK). Description: JNK assay (GST-Jun substrate). The class given is cell-based, Chinese hamster. The following applies: CHO cells, 2 μM for 2 and 5 minutes (FIG. 6). As for the experimental part: as §2, §4
A short description of data set [4]: Stability of cyclic phosphates in PBS / aqueous solution (TLC). The class given is physicochemical. The following applies: 10 mg/ml in PBS, 37°, up to 24 hours.
Method: These possibilities were tested with the 4 cyclic phosphates (1,2 cGP, 1,3 cGP, 1,2 cPP and 1,3 cPPP (see Appendix A) in either aqueous solution or in cell lysates of CHO or NIH-3T3 cells (see Materials and Methods). 10 mg/ml cyclic phosphate in 1 ml of either PBS or PBS mixed with cell lysate (0.1 mg/ml protein) and incubated at 37° for up to 24 hours. Samples were tested at different times by thin layer chromatography on Silica gel 60 with n-propanol, concentrated ammonia, H2O (6:3:1 v/v/v). The Rr values for all 4 cyclic phosphates was in the range of 0.45-0.55 while α-GP and β-GP had Rf=0.14-0.16. This distinct difference allowed the qualitative detection of hydrolysis of the cyclic phosphate.
Data set [5] has as its system estrogen receptor (ER) in human ERmod T47D cells. In words: Estrogen receptor expression in T47D cells (immunostaining, score 0 to 4). Format: cell-based. The following applies: 1 μM, 7 days of incubation (FIG. 11). The procedure: Tumor cells were incubated for 7 days in the absence or presence of 1 μM of 1,3 cGP. On each of the noted days, cells were harvested by trypsinization, washed and fixed by dryng in air. The preparations were then peroxidased and protein blocked. Following this, the cells were labeled with first antibody (mouse-anti-human ER) for 30 mins. at room temperature (RT). After washing, cells were incubated with biotinylated second antibody for 10 min at RT. After washing, the cells were incubated with streptavidin conjugated to horse radish peroxidase and color reaction with the DAB reagent was performed. Background staining was done with hematoxylin (mayer) and the fixation process was completed with water, alcohol and finally xylene immersions. The slides were covered, sealed and examined by a pathologist in a blind fashion. Expression of the ER was scored on a scale of 0 to 4 pulses, where 4 pulses is the highest score.

The next data set deals with perforated CHO cells. In words: Intracellular binding in perforated CHO cells (displacement of 1,3-cP32P). Also noted: species or system Chinese hamster. The following applies: 20 μM 1,3-cP32P, 5 minutes at 4° C., increasing amounts of competitor (FIG. 9). The procedure:
Radioactivity was scored after 2 washings with PBS at 4° C. as above. […] In this set of experiments the number of displaceable (i.e. specifically bound) ligands was estimated to be in the range of 10^7-10^8 per cell.

The next data set relates to CHO cells. Description: Uptake of 32P labeled 1,3-cPP by CHO cells. Format: cell-based, Chinese hamster. The following applies: intact CHO cells, increasing amounts of unlabeled compound. The procedure:
After 2 washings with PBS the cells were disintegrated in 1 M NaOH and radioactivity was scored with a β counter. The insert presents the magnified uptake profile for short incubations (up to 2 minutes) where the intercept (0 time incubation) corresponded to approximately 3×10^6 molecules per cell, while at equilibrium (above 2 hours incubation) incorporation corresponded to approximately 2×10^8 molecules per cell.

Data set [6] can be described thus: Stability of cyclic phosphates in cell lysates (TLC). The following applies: 10 mg/ml in PBS mixed with CHO or NIH-3T3 cell lysate (0.1 mg/ml protein), 37°, up to 24 hours.
From the text: This distinct difference allowed the qualitative detection of hydrolysis of the cyclic phosphate.
The subject of a further data set is insulin receptor. Description: Tyrosine phosphorylation of the insulin receptor in CHO-T cells. Format: cell-based. The following applies: 20 mins. The procedure: Group 4: 0.1 μM 1,3, cPP only.
Tyrosine phosphorylation was determined using anti-phosphotyrosine antibody (as described above).

In data set [7] the test system is tyrosine phosphorylated proteins in CHO cells. In words: Tyrosine phosphorylation in CHO cells (Western blot with anti-phosphotyrosine antibodies). Format: cell-based, Chinese hamster. The following applies: CHO cells, 5 μM or 10 μM, 37° C., 1, 3 or 5 mins, monoclonal antibodies; bands about 35, 60-70, 120 and 38 kD (FIG. 4). As for the experimental part: Chinese hamster ovary (CHO) cells (Puck, 1985; Gottesman, 1987) and NIH-3T3 cells (NIH), were used in the following experiments. CHO cells were grown at 37° C. in a humidified 5% CO2 atmosphere in 60×15 mm Petri dishes (Falcon) containing F12 medium supplemented with 10% fetal calf serum (FCS) and 2 mM glutamine. When reaching near confluence, the cells were placed under overnight starvation by replacing the medium to F12+2 mM glutamine with 0.1% FCS. The stimulation experiments were performed with cells which were under starvation for 12-18 hours.
as §1, with “mM. They were diluted into the cell culture medium to a final concentration of up to 20 μM. At the assigned stimulation time (0.5-20 min.) the medium was aspirated under vacuum and the cells were washed 3 times with cold (4° C.) phosphate buffered saline (PBS).” for “mM.”

Take `O=P(O)(O)OC(CO)CO` [βGP, β-Glycerophosphate]: in [1], the “level of phosphorylation in intracellular proteins after extracellular application” value is recorded as “lack this activity”.

For `O=P1(O)OCC(O)CO1` (stereo not drawn) [1,3 cGP(E)], the “activation of the Raf1/MAPK cascade” value in the data set on Raf1/MAPK cascade is given as no more than 5 fold. Moreover, the “stimulation of 35-40 kD protein kinase (P42 MAPK, ERK 2)” value in data set [2] was “activated”. In addition, the “inhibition of the lysate phosphatases (in words)” value in the data set with cell lysate phosphatases is given as “limited inhibition”. Also, the “effect on the JNK pathway” value in data set [3] is given as “unaffected”.

With `O=P1(O)OCC(O)CO1` (stereo not drawn) [1,3 cGP, 1,3 cyclic glycerophosphate], in [4], the “hydrolysis to the linear form in PBS” value is given as “No hydrolysis”. The “level of expression of estrogen receptor (ER) versus growth medium alone” value was “increases” in data set [5] and “significantly higher” in data set [5] (listed as 1,3, cGP). Besides, the “displacement of 1,3-cP32P in perforated CHO cells” value with perforated CHO cells is “clear binding competition”. Further, in the data set with CHO cells, the “effect of unlabeled competitor on the uptake profile of 1,3-cP32P” value was “remained essentially unaltered”. In addition, the “inhibition of cell lysate phosphatase activity” value in the data set on cell lysate phosphatases is “approximately 10%”. Also, the “hydrolysis to the linear form by cell lysate” value (“hydrolysis … by cell lysate” for short) in data set [6] is given as “No hydrolysis”.

Turning to `O=P1(O)OCC(CO)O1` (stereo not drawn) [1,2 cGP, 1,2 cyclic glycerophosphate], the “hydrolysis to the linear form in PBS” value in [4] is given as “No hydrolysis”. Moreover, the “hydrolysis … by cell lysate” value in data set [6] was “No hydrolysis”.

For the compound “insulin: hormone; binding to its receptor results in tyrosine phosphorylation of 117 kD and 200 kD receptor proteins”, the “phosphorylation of the insulin receptors” value in the data set on insulin receptor (0.1 nM insulin) is listed as “partial phosphorylation”; in the data set with insulin receptor (1 nM insulin), “maximal phosphorylation”.

In the case of `O=P(O)(O)OCC(O)CO` (stereo in doubt) [αGP, L-α-glycerophosphate, reference compound], in the data set on perforated CHO cells, the “displacement of 1,3-cP32P in perforated CHO cells” value is recorded as “ineffective”. Further, in data set [1], the “level of phosphorylation in intracellular proteins after extracellular application” value is given as “lack this activity”.

In the case of `CC1COP(=O)(O)O1` (stereo not drawn) [1,2 cPP, 1,2 cyclic propanediol phosphate], the “hydrolysis to the linear form in PBS” value in [4] is “No hydrolysis”. Besides, in data set [6], the “hydrolysis … by cell lysate” value was “No hydrolysis”. For the same compound, the “kinetics of tyrosine phosphorylation” value in data set [7] is recorded as “enhanced tyrosine phosphorylation”.
